Measurements taken from article PMC11649784, “Re-design and evaluation of diclofenac-based carborane-substituted prodrugs and their anti-cancer potential” (Scientific Reports, 2024).

What was measured:
human recombinant COX-2 = target: T1, human recombinant COX-2 (Homo sapiens, UniProt P35354); assay: COX Fluorescent Inhibitor Screening Assay, COX-2; format: biochemical
T1 construct: purchased Cayman Chemical Company, Ann Arbor, MI, USA
T1 sequence (P35354 18-604): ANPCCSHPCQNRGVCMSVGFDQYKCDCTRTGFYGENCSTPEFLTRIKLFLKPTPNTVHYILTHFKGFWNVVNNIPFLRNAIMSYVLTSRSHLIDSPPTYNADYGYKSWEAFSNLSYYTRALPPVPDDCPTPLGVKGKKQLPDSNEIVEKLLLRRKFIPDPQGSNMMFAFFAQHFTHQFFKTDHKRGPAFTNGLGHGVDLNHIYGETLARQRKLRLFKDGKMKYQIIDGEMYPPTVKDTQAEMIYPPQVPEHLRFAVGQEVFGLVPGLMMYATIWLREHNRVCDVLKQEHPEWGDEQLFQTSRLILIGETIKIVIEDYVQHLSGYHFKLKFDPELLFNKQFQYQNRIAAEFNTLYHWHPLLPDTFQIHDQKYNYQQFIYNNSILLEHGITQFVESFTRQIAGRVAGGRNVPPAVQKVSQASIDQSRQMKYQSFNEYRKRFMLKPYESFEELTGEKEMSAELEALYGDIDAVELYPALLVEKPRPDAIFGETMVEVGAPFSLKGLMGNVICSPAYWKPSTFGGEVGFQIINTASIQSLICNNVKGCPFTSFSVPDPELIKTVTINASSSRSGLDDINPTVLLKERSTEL
Description: (§1) The COX inhibition activity against ovine COX-1 and human recombinant COX-2 was determined using the COX Fluorescent Inhibitor Screening Assay Kit (Cayman Chemical Company, Ann Arbor, MI, USA) according to the manufacturer’s instructions as reported.

[1] = test system: peritoneal exudate cells (PECs); assay: Viability of peritoneal exudate cells; format: cell-based, mice; details: column head not given
Description: The biological study was performed on a murine colon adenocarcinoma cell line (MC38), two human colorectal carcinoma cell lines (HCT116 and HT29), and a human fetal lung fibroblast cell line (MRC-5). All cell lines are commercially available and were obtained from the American Type Culture Collection (ATCC). The human cell lines were kept in HEPES-buffered RPMI-1640 medium supplemented with 10 [drawing 141] heat-inactivated FCS, 2 mM L-glutamine, 0.01 [drawing 142] sodium pyruvate, penicillin (100 units mL^−1), and, streptomycin ( [drawing 143] mL^-1). The MC38 cell line was maintained in DMEM medium additionally supplemented with 1 [drawing 144] non-essential amino acids. Cells were grown at [drawing 145] in a humidified atmosphere with 5 [drawing 146] [drawing 147] . Peritoneal exudate cells (PECs) were isolated from healthy C57BL/6 mice (males, n = 3, 3 months old, weight 22–25 g) by performing an ice-cold PBS peritoneal lavage. Mice were sacrificed by cervical dislocation. Cells were cultivated for 4 h when nonadherent population was removed by washing in PBS, and additionally cultivated overnight in HEPES-buffered RPMI-1640 medium supplemented with 5 [drawing 148] heat-inactivated FCS before treatment with experimental drugs. […]
After 72 h, cell viability was determined using MTT and CV tests. […] For both viability tests, the absorbance of the developed colors was measured using an automated microplate reader at 570 nm with a reference wavelength of 670 nm. The results were expressed as a percentage of the control values of the untreated cells, which were arbitrarily set at 100 [drawing 160] . IC50 values, defined as 50 [drawing 161] inhibitory concentration, were calculated using a four-parameter logistic function and presented as mean±SD. […] To evaluate the nature of the detected autophagy, a combined treatment with compound 3 and the autophagy inhibitors chloroquine (Chlq) and 3-methyladenine (3-MA) was carried out. […] After 72 h, cell viability was determined by CV assay.

ovine COX-1 = target: T2, ovine COX-1 (Ovis aries, UniProt P05979); assay: COX Fluorescent Inhibitor Screening Assay, COX-1; format: biochemical; details: absolute IC50, 0.1 to 100 μM in duplicate, 95% CI in brackets
T2 construct: purchased Cayman Chemical Company, Ann Arbor, MI, USA
T2 sequence (P05979 25-600): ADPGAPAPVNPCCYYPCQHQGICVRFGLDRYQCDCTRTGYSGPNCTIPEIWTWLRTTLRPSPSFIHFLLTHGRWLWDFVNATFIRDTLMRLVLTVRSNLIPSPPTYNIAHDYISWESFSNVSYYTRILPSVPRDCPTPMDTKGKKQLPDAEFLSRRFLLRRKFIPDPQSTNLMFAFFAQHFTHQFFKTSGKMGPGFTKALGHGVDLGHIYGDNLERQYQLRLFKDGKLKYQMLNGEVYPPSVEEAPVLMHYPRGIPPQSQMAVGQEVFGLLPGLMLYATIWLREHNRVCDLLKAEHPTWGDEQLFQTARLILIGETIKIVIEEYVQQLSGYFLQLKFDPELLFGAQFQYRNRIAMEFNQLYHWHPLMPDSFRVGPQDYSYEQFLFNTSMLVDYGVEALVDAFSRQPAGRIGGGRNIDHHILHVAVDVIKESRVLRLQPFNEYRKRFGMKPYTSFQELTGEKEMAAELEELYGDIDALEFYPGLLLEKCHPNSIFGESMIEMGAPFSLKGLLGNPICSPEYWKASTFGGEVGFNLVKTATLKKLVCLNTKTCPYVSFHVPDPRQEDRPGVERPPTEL
Description: as §1

- %Inh. @ 100 μM (n = 2) COX-2 (human recombinant COX-2; 100 μM): 105%
- IC50 (human recombinant COX-2; absolute IC50, 0.1 to 100 μM in duplicate, 95% CI in brackets): 4.58 µM
- COX inhibition, in words (human recombinant COX-2; in vitro COX assay, COX-1 and COX-2): moderately active COX-inhibitors
- SI1/2 = IC50(COX-1)/IC50(COX-2) (human recombinant COX-2; selectivity index): 3.3
- IC50 (ovine COX-1): 15.3 µM
Substance: 1-[2-(7,8-dicarba-nido-undecaborate)]- [drawing 126] H-indolium-2-amine [compound 3]
- Selectivity index (IC50 value of primary vs. cancer cells), PEC, second cancer cell line column ([1]; presumably HCT116): 2.17
- Selectivity index (IC50 value of primary vs. cancer cells), PEC, third cancer cell line column ([1]; presumably HT29): 1.42
- Selectivity index (IC50 value of primary vs. cancer cells), PEC, first cancer cell line column ([1]; presumably MC38): 2.63
